Reference: patent US10336732B2, “1-heterocyclyl isochromanyl compounds and analogs for treating CNS disorders” (Sunovion Pharmaceuticals Inc., priority 2015, dated 2019)

The compounds below were run on mice (assay: Neuropharmacological assay (SmartCube), behavioral signature of compound-treated mice). Conditions: i.p. 15 min before behavioral test, most efficacious dose(s) of 3 doses.
Format: in vivo
Procedure, shortened: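 Mice received compound i.p. in NMP/PEG/propylene glycol vehicle at 3 doses, 15 min before testing. Video-captured behavior was algorithmically compared with a reference-drug signature database.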

Structure (SMILES)	AD: ADHD (probability that behavioral signature matches class)	AG: analgesic (probability that behavioral signature matches class)	AX: anxiolytic (probability that behavioral signature matches class)	CE: cognitive enhancer (probability that behavioral signature matches class)	DP: anti-depressant (probability that behavioral signature matches class)	HA: hallucinogen (probability that behavioral signature matches class)	MS: mood stabilizer (probability that behavioral signature matches class)	PS: anti-psychotic (probability that behavioral signature matches class)	SD: sedative hypnotic (probability that behavioral signature matches class)	UN: uncharacterized CNS activity (probability that behavioral signature matches class)
COc1cccc2c1[C@H]([C@H]1CCCN1)OCC2 [Compound I-49, (R)-2-((R)-8-methoxyisochroman-1-yl)pyrrolidine]	+ (LOQ ≤ + <5%)	++ (5% ≤ ++ <25%)	++ (5% ≤ ++ <25%)	++ (5% ≤ ++ <25%)	++ (5% ≤ ++ <25%)	+ (LOQ ≤ + <5%)	++ (5% ≤ ++ <25%)	++ (5% ≤ ++ <25%)	++ (5% ≤ ++ <25%)	++ (5% ≤ ++ <25%)
N#Cc1ccc2c(c1)CCO[C@H]2[C@@H]1CCCN1 [Compound I-44, (R)-1-((S)-pyrrolidin-2-yl)isochroman-6-carbonitrile]	+ (LOQ ≤ + <5%)	++ (5% ≤ ++ <25%)	+++ (25% ≤ +++ <50%)	++ (5% ≤ ++ <25%)	++ (5% ≤ ++ <25%)	+ (LOQ ≤ + <5%)	++ (5% ≤ ++ <25%)	+++ (25% ≤ +++ <50%)	+ (LOQ ≤ + <5%)	+ (LOQ ≤ + <5%)
Fc1ccc2c(c1)CCO[C@H]2[C@H]1CCCN1 [Compound I-12, (R)-2-((R)-6-fluoroisochroman-1-yl)pyrrolidine]	+ (LOQ ≤ + <5%)	++ (5% ≤ ++ <25%)	++ (5% ≤ ++ <25%)	+ (LOQ ≤ + <5%)	++ (5% ≤ ++ <25%)	+ (LOQ ≤ + <5%)	+ (LOQ ≤ + <5%)	++ (5% ≤ ++ <25%)	+ (LOQ ≤ + <5%)	++++ (50% ≤ ++++)
N#Cc1ccc2c(c1)[C@H]([C@@H]1CCCN1)OCC2 [Compound I-40, (R)-1-((S)-pyrrolidin-2-yl)isochroman-7-carbonitrile]	+ (LOQ ≤ + <5%)	+ (LOQ ≤ + <5%)	++ (5% ≤ ++ <25%)	++ (5% ≤ ++ <25%)	++ (5% ≤ ++ <25%)	+ (LOQ ≤ + <5%)	+ (LOQ ≤ + <5%)	+++ (25% ≤ +++ <50%)	+ (LOQ ≤ + <5%)	+ (LOQ ≤ + <5%)
CC1(C)Cc2ccccc2[C@H]([C@@H]2CCCN2)O1 [Compound I-66, (S)-2-((R)-3,3-dimethylisochroman-1-yl)pyrrolidine]	+ (LOQ ≤ + <5%)	++ (5% ≤ ++ <25%)	++ (5% ≤ ++ <25%)	++ (5% ≤ ++ <25%)	++ (5% ≤ ++ <25%)	+ (LOQ ≤ + <5%)	+ (LOQ ≤ + <5%)	+++ (25% ≤ +++ <50%)	+ (LOQ ≤ + <5%)	++ (5% ≤ ++ <25%)
c1cc(-c2ccc3c(c2)CCO[C@@H]3[C@@H]2CCCN2)on1 [Compound I-55, 5-((S)-1-((S)-pyrrolidin-2-yl)isochroman-6-yl)isoxazole]	+ (LOQ ≤ + <5%)	+ (LOQ ≤ + <5%)	+ (LOQ ≤ + <5%)	+ (LOQ ≤ + <5%)	+ (LOQ ≤ + <5%)	+ (LOQ ≤ + <5%)	+ (LOQ ≤ + <5%)	+ (LOQ ≤ + <5%)	+ (LOQ ≤ + <5%)	+ (LOQ ≤ + <5%)
C[C@]1([C@@H]2CCCN2)OCc2cc(F)ccc21 [Compound I-123, (S)-2-((S)-5-fluoro-1-methyl-1,3-dihydroisobenzofuran-1-yl)pyrrolidine]	+ (LOQ ≤ + <5%)	+ (LOQ ≤ + <5%)	+ (LOQ ≤ + <5%)	+ (LOQ ≤ + <5%)	+ (LOQ ≤ + <5%)	+ (LOQ ≤ + <5%)	+ (LOQ ≤ + <5%)	+ (LOQ ≤ + <5%)	+ (LOQ ≤ + <5%)	+ (LOQ ≤ + <5%)
Cc1cccc2c1[C@H]([C@@H]1CCCN1)OCC2 [Compound I-22, (S)-2-((R)-8-methylisochroman-1-yl)pyrrolidine]	+ (LOQ ≤ + <5%)	++ (5% ≤ ++ <25%)	++ (5% ≤ ++ <25%)	++ (5% ≤ ++ <25%)	+++ (25% ≤ +++ <50%)	+ (LOQ ≤ + <5%)	+ (LOQ ≤ + <5%)	+++ (25% ≤ +++ <50%)	+ (LOQ ≤ + <5%)	+ (LOQ ≤ + <5%)
CC1(C)Cc2ccccc2[C@@H]([C@H]2CCCN2)O1 [Compound I-67, (R)-2-((S)-3,3-dimethylisochroman-1-yl)pyrrolidine]	+ (LOQ ≤ + <5%)	+ (LOQ ≤ + <5%)	+ (LOQ ≤ + <5%)	+ (LOQ ≤ + <5%)	+ (LOQ ≤ + <5%)	+ (LOQ ≤ + <5%)	+ (LOQ ≤ + <5%)	+ (LOQ ≤ + <5%)	+ (LOQ ≤ + <5%)	+ (LOQ ≤ + <5%)
Fc1ccc2c(c1)CCCO[C@@H]2[C@@H]1CCCN1 [Compound I-110, (S)-2-((S)-7-fluoro-1,3,4,5-tetrahydrobenzo[c]oxepin-1-yl)pyrrolidine]	+ (LOQ ≤ + <5%)	++ (5% ≤ ++ <25%)	++ (5% ≤ ++ <25%)	++ (5% ≤ ++ <25%)	++ (5% ≤ ++ <25%)	+ (LOQ ≤ + <5%)	+ (LOQ ≤ + <5%)	++++ (50% ≤ ++++)	++ (5% ≤ ++ <25%)	+++ (25% ≤ +++ <50%)
Fc1cccc2c1CCO[C@@H]2[C@@H]1CCCN1 [Compound I-14, (S)-2-((S)-5-fluoroisochroman-1-yl)pyrrolidine]	+ (LOQ ≤ + <5%)	++ (5% ≤ ++ <25%)	++ (5% ≤ ++ <25%)	++ (5% ≤ ++ <25%)	+++ (25% ≤ +++ <50%)	+ (LOQ ≤ + <5%)	++ (5% ≤ ++ <25%)	+++ (25% ≤ +++ <50%)	+ (LOQ ≤ + <5%)	+ (LOQ ≤ + <5%)

Same assay, conditions: i.p. 15 min before behavioral test, most efficacious dose(s) of 3 doses

Structure (SMILES)	XG: anxiogenic (probability that behavioral signature matches class)
COc1cccc2c1[C@H]([C@H]1CCCN1)OCC2 [Compound I-49, (R)-2-((R)-8-methoxyisochroman-1-yl)pyrrolidine]	+ (LOQ ≤ + <5%)
N#Cc1ccc2c(c1)CCO[C@H]2[C@@H]1CCCN1 [Compound I-44, (R)-1-((S)-pyrrolidin-2-yl)isochroman-6-carbonitrile]	+ (LOQ ≤ + <5%)
Fc1ccc2c(c1)CCO[C@H]2[C@H]1CCCN1 [Compound I-12, (R)-2-((R)-6-fluoroisochroman-1-yl)pyrrolidine]	+ (LOQ ≤ + <5%)
N#Cc1ccc2c(c1)[C@H]([C@@H]1CCCN1)OCC2 [Compound I-40, (R)-1-((S)-pyrrolidin-2-yl)isochroman-7-carbonitrile]	+ (LOQ ≤ + <5%)
CC1(C)Cc2ccccc2[C@H]([C@@H]2CCCN2)O1 [Compound I-66, (S)-2-((R)-3,3-dimethylisochroman-1-yl)pyrrolidine]	+ (LOQ ≤ + <5%)
c1cc(-c2ccc3c(c2)CCO[C@@H]3[C@@H]2CCCN2)on1 [Compound I-55, 5-((S)-1-((S)-pyrrolidin-2-yl)isochroman-6-yl)isoxazole]	+ (LOQ ≤ + <5%)
C[C@]1([C@@H]2CCCN2)OCc2cc(F)ccc21 [Compound I-123, (S)-2-((S)-5-fluoro-1-methyl-1,3-dihydroisobenzofuran-1-yl)pyrrolidine]	+ (LOQ ≤ + <5%)
Cc1cccc2c1[C@H]([C@@H]1CCCN1)OCC2 [Compound I-22, (S)-2-((R)-8-methylisochroman-1-yl)pyrrolidine]	+ (LOQ ≤ + <5%)
CC1(C)Cc2ccccc2[C@@H]([C@H]2CCCN2)O1 [Compound I-67, (R)-2-((S)-3,3-dimethylisochroman-1-yl)pyrrolidine]	+ (LOQ ≤ + <5%)
Fc1ccc2c(c1)CCCO[C@@H]2[C@@H]1CCCN1 [Compound I-110, (S)-2-((S)-7-fluoro-1,3,4,5-tetrahydrobenzo[c]oxepin-1-yl)pyrrolidine]	+ (LOQ ≤ + <5%)
Fc1cccc2c1CCO[C@@H]2[C@@H]1CCCN1 [Compound I-14, (S)-2-((S)-5-fluoroisochroman-1-yl)pyrrolidine]	+ (LOQ ≤ + <5%)
